According to ChEMBL document CHEMBL1156243:
Active and inactive are the calls of the source. Unless noted, the calls are words filed in the database; no cut-off is given here.

Legend:
[1] = Binding affinity to amyloid beta (1 to 42) oligomers by change in fluorescence at 100 uM after 10 mins
[2] = Binding affinity to amyloid beta (1 to 42) fibrils by fluorescence quenching after 30 mins
[3] = Inhibition of amyloid beta (1 to 42) aggregation […] after 48 hrs by fluorescence imaging
[4] = Binding affinity to amyloid beta (1 to 42) fibrils by change in fluorescence at 100 uM after 10 mins
[5] = Binding affinity to amyloid beta (1 to 42) oligomers by fluorescence quenching after 30 mins
[6] = Binding affinity to amyloid beta (1 to 42) fibrils by change in fluorescence at 100 uM after 2 mins
[7] = Binding affinity to amyloid beta (1 to 42) oligomers by change in fluorescence at 100 uM after 2 mins

Row | Activity [1] | Activity [2] | inhibition [3] | Activity [4] | Activity [5] | Activity [6] | Activity [7] | Compound
1 | Active | inactive | inactive | Active | Active |  |  | c1ccc2[nH]ccc2c1
2 |  |  |  |  |  | Active | Active | O=S(=O)(O)c1cccc2c(-c3ccc(Nc4ccccc4)c4c(S(=O)(=O)O)cccc34)ccc(Nc3ccccc3)c12
